Results published in patent US8975246B2, “Bile acid or bile salt fatty acid conjugates” (Galmed Research and Development Ltd., priority 2001, dated 2015).

Key:
Type in all cases: in vivo
[1] = tested on: Inbred C57J/L male mice; assay: Serum cholesterol of mice on lithogenic diet
Method: Inbred C57J/L male mice (Jackson Lab., Maine, USA) 4-6 weeks old weighing 20-25 gm were used. They were given their regular diet supplemented with (% w/w) Butter fat 15, Cholesterol 1, Cholic Acid 0.5, Corn Oil 2 (modified from Khanuia et al., Proc. Natnl. Acad. Sci. USA 1995; 92:7729-33) for 4-8 weeks (Lithogenic diet #2). Half of the group were given 3β-arachidylamido-7α,12α-dihydroxy-5β-cholan-24-oic acid at a dose of 150 mg/kg/day suspended in saline by intragastric gavage. The other half were similarly given an equal volume of saline. After 4-8 weeks the animals were anesthetized, heart blood was drawn for analysis. The liver and other organs were removed. Serum cholesterol levels were determined by autoanalyzer.
Another group of C57 J/L male inbred mice (Jackson Laboratories, Maine, USA) 4-6 weeks old weighing 20-25 gm. were given a lithogenic diet (No. 2) for 8 weeks and then a regular diet for another 8 weeks. During the 8 weeks of the regular diet part of the animals were given 3β-arachidylamido-7α,12α-dihydroxy-5β-cholan-24-oic acid by intragastric gavage at a dose of 150 mg/kg/day. After a total of 16 weeks the animals were anesthetized, heart blood was drawn for analysis. Liver and other organs were removed. Serum cholesterol levels were analyzed as above. A third group of animals were given a regular diet throughout the 16 weeks and then similarly analyzed.

[2] = tested on: Wistar male rats; assay: Fasting blood glucose, rats on regular or high fat diet; details: 4 weeks
Method: The effects of BAFACs on fasting blood glucose were tested in 3 animal species: Hamsters, Rats and Mice. The animals were kept on regular or high fat diets (as specified). In each group half of the animals received a daily BAFAC dose (150 mg/kg) dispersed in 0.5 ml of saline by gavage. The other half received similarly, by gavage, an equal volume of saline only. All animals were kept on a 12 hr day/night cycle at 22° C. throughout the experiment. They had access to water ad libidum.
Wistar male rats 4 weeks old (100-120 gm) were fed a regular chow diet or a high fat diet enriched with lard (10%), cholesterol (2.5%) and cholic acid (0.5%) (w/w). Blood and organ samples were obtained after sacrifice (in the fasting state) after 4 weeks of the trial. Half of the animals in each group were given BAFAC 150 mg/kg; the others were given an equal volume of saline. There were 7 rats in the control and test groups on a regular diet and 6 rats in each group given a high fat diet.
The hamsters and rats on the high fat diets developed fatty liver (confirmed by chemical measurement of liver fat), a high fasting blood glucose, and represented models of NIDDM.
ICR male mice, 4 weeks old (approx. 20 gm) were fed a regular diet. Streptozotocin 200 mg/kg was injected i.p. on the first day of the experiment. (This induced damage to the islet cells of the pancreas and simulated IDDM). […]

[3] = tested on: human patients; assay: Human study: change in glucose; parameters: Change from Baseline in Glucose, Mean / Change from Baseline in Glucose, Median / Change from Baseline in Glucose, Max: unit not given here
Method: (§1) The effects of BAFACs on disorders associated with Fatty liver, insulin resistance and altered glucose metabolism were tested on 60 human patients. Experiments were subdivided to 2 dosage regimens: Aramchol 300 mg daily (high dose) and 100 mg daily (low dose) respectively for a total period time of 3 months. The Aramchol:placebo ratio is of 2:1 for the low dose arm, and 1:1 for the high dose arms.
(§2) The study period included a 3 month treatment period with Aramchol low dose, or Aramchol high dose, or placebo, and a one month follow-up period. Aramchol was given daily orally. During the treatment period, all patients attended periodic […] (at first month) and subsequently monthly study-center visits in order to assess safety and efficacy of the treatment.
(§3) The results are shown using two known in the art principle statistical evaluation on, Intention-To-Treat (ITT) and Per Protocol (PP) populations. The ITT principle asserts that the effect of a treatment policy can be best assessed by evaluation on the basis of the intention to treat a subject (i.e. the planned treatment regimen) rather than the actual treatment given. It has the consequence that subjects allocated to a treatment group should be followed up, assessed and analyzed as members of that group irrespective of their compliance to the planned course of treatment. […] Compliance covers such considerations as exposure to treatment, availability of measurements and absence of major protocol violations.

[4] = tested on: human patients; assay: Human study: change in insulin; details: for Change from Baseline in Insulin, Max / Change from Baseline in Insulin, Mean / Change from Baseline in Insulin, Median / Change from Baseline in Insulin, Min: ITT
Method: as §1, §2, §3

[5] = Aramchol 100 mg/d, Visit 3, ITT
[6] = Aramchol 100 mg/d, Visit 4, ITT
[7] = Aramchol 100 mg/d, Visit 5, ITT
[8] = Aramchol 100 mg/d, Visit 6, ITT
[9] = Aramchol 100 mg/d, Visit 7, ITT
[10] = Aramchol 300 mg/d, Visit 3, ITT
[11] = Aramchol 300 mg/d, Visit 4, ITT
[12] = Aramchol 300 mg/d, Visit 5, ITT
[13] = Aramchol 300 mg/d, Visit 6, ITT
[14] = Aramchol 300 mg/d, Visit 7, ITT

CCCCCCCCCCCCCCCCCCCC(=O)N[C@H]1CC[C@@]2(C)[C@@H](C1)C[C@@H](O)[C@@H]1[C@@H]2C[C@H](O)[C@]2(C)[C@@H]([C@H](C)CCC(=O)O)CC[C@@H]12 [Aramchol, 3β-arachidylamido-7α,12α-dihydroxy-5β-cholan-24-oic acid]
Serum Cholesterol (mean + StD) ([1]; Lithogenic diet 2 + BAFAC II 150 mg/kg/day by gavage, 4 W): 143 (19.8) mg %
Serum Cholesterol (mean + StD) ([1]; Lithogenic diet 2 + BAFAC II 150 mg/kg/day by gavage, 6 W): 125 (10.8) mg %
Serum Cholesterol (mean + StD) ([1]; Lithogenic diet 2 + BAFAC II 150 mg/kg/day by gavage, 8 W): 139 (0.7) mg %
Serum Cholesterol (mean + StD) ([1]; Lithogenic diet 2 for 8 W then regular diet 8 W with BAFAC II 150 mg/kg/day, total 16 W): 65 (6.8) mg %
fasting blood glucose ([2]; high fat diet (fatty liver), BAFAC 150 mg/kg by gavage, vs saline): markedly reduced
blood glucose ([2]; normal (regular) diet, no hyperglycemia or fatty liver, BAFAC 150 mg/kg): no effect
Change from Baseline in Glucose, Max [3, 5]: 17.0
Change from Baseline in Glucose, Mean [3, 5]: −2.0
Change from Baseline in Glucose, Median [3, 5]: 0.0
Change from Baseline in Glucose, Min [3, 5]: −38.0
Change from Baseline in Glucose, Max [3, 6]: 16.0
Change from Baseline in Glucose, Mean [3, 6]: −2.2
Change from Baseline in Glucose, Median [3, 6]: 1.0
Change from Baseline in Glucose, Min [3, 6]: −33.0
Change from Baseline in Glucose, Max [3, 7]: 21.0
Change from Baseline in Glucose, Mean [3, 7]: −1.0
Change from Baseline in Glucose, Median [3, 7]: 0.5
Change from Baseline in Glucose, Min [3, 7]: −30.0
Change from Baseline in Glucose, Max [3, 8]: 39.0
Change from Baseline in Glucose, Mean [3, 8]: −1.1
Change from Baseline in Glucose, Median [3, 8]: −2.0
Change from Baseline in Glucose, Min [3, 8]: −32.0
Change from Baseline in Glucose, Max [3, 9]: 23.0
Change from Baseline in Glucose, Mean [3, 9]: 0.8
Change from Baseline in Glucose, Median [3, 9]: −1.0
Change from Baseline in Glucose, Min [3, 9]: −41.0
Change from Baseline in Glucose, Max [3, 10]: 19.0
Change from Baseline in Glucose, Mean [3, 10]: −1.3
Change from Baseline in Glucose, Median [3, 10]: 1.0
Change from Baseline in Glucose, Min [3, 10]: −32.0
Change from Baseline in Glucose, Max [3, 11]: 16.0
Change from Baseline in Glucose, Mean [3, 11]: −2.4
Change from Baseline in Glucose, Median [3, 11]: −1.5
Change from Baseline in Glucose, Min [3, 11]: −24.0
Change from Baseline in Glucose, Max [3, 12]: 18.0
Change from Baseline in Glucose, Mean [3, 12]: −3.3
Change from Baseline in Glucose, Median [3, 12]: −5.0
Change from Baseline in Glucose, Min [3, 12]: −46.0
Change from Baseline in Glucose, Max [3, 13]: 13.0
Change from Baseline in Glucose, Mean [3, 13]: −2.0
Change from Baseline in Glucose, Median [3, 13]: −2.5
Change from Baseline in Glucose, Min [3, 13]: −22.0
Change from Baseline in Glucose, Max [3, 14]: 82.0
Change from Baseline in Glucose, Mean [3, 14]: 3.8
Change from Baseline in Glucose, Median [3, 14]: 3.0
Change from Baseline in Glucose, Min [3, 14]: −22.0
glucose levels (in words) ([3]; Aramchol 300 mg/d, tested subjects, Table 7): remarkably reduces glucose levels
Change from Baseline in Insulin, Max ([4]; Aramchol 100 mg/d oral): 38.9
Change from Baseline in Insulin, Mean ([4]; Aramchol 100 mg/d oral): 5.6
Change from Baseline in Insulin, Median ([4]; Aramchol 100 mg/d oral): 2.5
Change from Baseline in Insulin, Min ([4]; Aramchol 100 mg/d oral): −7.4
Change from Baseline in Insulin, Max ([4]; Aramchol 300 mg/d oral): 9.1
Change from Baseline in Insulin, Mean ([4]; Aramchol 300 mg/d oral): −21.1
Change from Baseline in Insulin, Median ([4]; Aramchol 300 mg/d oral): 0.9
Change from Baseline in Insulin, Min ([4]; Aramchol 300 mg/d oral): −367.5
basal insulin levels (in words) ([4]; tested subjects, Table 8): reduces basal insulin levels
